Among the data in ChEMBL document CHEMBL2331155, “Polycyclic hybrid isoprenoids from a reed rhizosphere soil derived Streptomyces sp. CHQ-64” (J Nat Prod, 2013) are IC50, Activity and inhibition values, retold here.

Structures are written as SMILES. Active and inactive are the calls of the source. The calls are words filed in the database; no cut-off is given here.

One experiment concerns BGC-823. Nature of the experiment: Cytotoxicity against human BGC823 cells by MTT assay. It counts as functional, cell-based. (In general: Tetrazolium dyes change colour on reduction, which living cells bring about.)
Experiment [1] concerns the target Protein kinase C alpha type (Homo sapiens) (UniProt P17252). Nature of the experiment: Binding affinity to PKC alpha (unknown origin).
The test system of another experiment is Bel-7402. Nature of the experiment: Cytotoxicity against human Bel7402 cells by MTT assay. It counts as functional, cell-based.
For experiment [2], the target named is T1, DNA topoisomerase 1 (Homo sapiens) (UniProt P11387).
T1 sequence (whole entry): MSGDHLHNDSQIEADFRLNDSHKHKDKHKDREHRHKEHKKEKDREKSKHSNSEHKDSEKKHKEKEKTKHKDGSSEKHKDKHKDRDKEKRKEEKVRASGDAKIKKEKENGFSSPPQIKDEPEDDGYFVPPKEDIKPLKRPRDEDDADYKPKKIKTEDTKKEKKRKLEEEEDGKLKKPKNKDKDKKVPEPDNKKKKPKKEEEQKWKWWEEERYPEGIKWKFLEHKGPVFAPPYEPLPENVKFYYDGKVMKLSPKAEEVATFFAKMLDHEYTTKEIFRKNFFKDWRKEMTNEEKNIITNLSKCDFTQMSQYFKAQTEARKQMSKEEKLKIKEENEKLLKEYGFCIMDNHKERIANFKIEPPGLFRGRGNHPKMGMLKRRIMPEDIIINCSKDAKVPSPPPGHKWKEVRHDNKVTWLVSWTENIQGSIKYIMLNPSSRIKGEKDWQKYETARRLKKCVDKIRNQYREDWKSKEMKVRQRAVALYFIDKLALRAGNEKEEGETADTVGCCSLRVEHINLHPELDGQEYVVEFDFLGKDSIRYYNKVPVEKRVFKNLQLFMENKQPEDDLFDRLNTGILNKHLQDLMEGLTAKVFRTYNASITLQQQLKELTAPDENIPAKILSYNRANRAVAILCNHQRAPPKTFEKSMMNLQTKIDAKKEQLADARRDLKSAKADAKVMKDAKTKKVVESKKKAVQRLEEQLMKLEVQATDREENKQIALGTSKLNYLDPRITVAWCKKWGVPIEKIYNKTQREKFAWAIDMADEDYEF
Nature of the experiment: Binding affinity to topoisomerase 1 (unknown origin).

The next experiment has as its system A2780. The experiment can be described thus: Cytotoxicity against human A2780 cells by MTT assay. Format: functional, cell-based.
For a further experiment, the system named is HCT-8. The experiment can be described thus: Cytotoxicity against human HCT8 cells by MTT assay. It counts as functional, cell-based.
The subject of the next experiment is A549. The experiment can be described thus: Cytotoxicity against human A549 cells by MTT assay. Format: functional, cell-based.
The species named for the next experiment is Homo sapiens. Nature of the experiment: Inhibition of NF-kappaB (unknown origin) expressed in LPS-stimulated Raw 264.7 cells pretreated for 2 hrs measured after 4 hrs of LPS-challenge by luciferase reporter assay. It counts as cell-based. A general note: A reporter such as luciferase makes a cellular process visible.

As for `CC(C)[C@H]1C(=O)N[C@@H](C[C@]23C[C@H]4C(=C[C@H]2N(C=O)c2ccccc23)CC[C@H]2C(C)(C)CCC[C@]42C)C(=O)N1C` (mixture of isomers) [INDOTERTINE B], the IC50 in the experiment on BGC-823 is above 10 µM; in the experiment on Bel-7402 it was above 10 µM; in the experiment on A2780, above 10 µM; in the experiment with HCT-8 it was 6.96 µM; in the experiment with A549, 4.88 µM. Besides, the result in experiment [1] and in experiment [2] was inactive. For the same compound, in the experiment filed under Homo sapiens, the inhibition result was “inactive”.
`C=C1CC[C@H]2C(C)(C)CCC[C@]2(C)[C@H]1C[C@@]12C[C@H]3C(=O)N4CCC[C@H]4C(=O)N3[C@@H]1Nc1ccccc12` [DRIMENTINE C]: the IC50 with BGC-823, with Bel-7402, in the experiment with A2780, in the experiment on HCT-8 and with A549 was above 10 µM each time. In addition, the outcome in experiment [1] and in experiment [2] was inactive. The inhibition result in the experiment listed under Homo sapiens was “inactive”.
For `C=C1CC[C@H]2C(C)(C)CCC[C@]2(C)[C@H]1C[C@@]12C[C@H]3C(=O)N(C)[C@@H](C(C)C)C(=O)N3[C@@H]1N(C=O)c1ccccc12` [DRIMENTINE H], the IC50 in the experiment with BGC-823, with Bel-7402, in the experiment with A2780, in the experiment on HCT-8 and in the experiment with A549 was above 10 µM throughout. In addition, the result in experiment [1] and in experiment [2] was inactive. Besides, in the experiment filed under Homo sapiens, the inhibition result was “inactive”.
Consider `CC(=O)O[C@H]1C(=O)[C@@]2(C)[C@H]([C@H](OC(=O)c3ccccc3)[C@]3(O)C[C@H](OC(=O)[C@H](O)[C@@H](NC(=O)c4ccccc4)c4ccccc4)C(C)=C1C3(C)C)[C@]1(OC(C)=O)CO[C@@H]1C[C@@H]2O` [PACLITAXEL], for which the IC50 is below 0.001 µM in the experiment with BGC-823, 0.006 µM with Bel-7402 and below 0.001 µM with A2780.

For orientation: IC50 means the concentration that inhibits the measured activity by half. Higher therefore signals a need for much substance.
